# Key:
# Assay type in all cases: cell-based
# HIV-1 CNE65 = details: Table 7; CNE65, clade C, R5
# HIV-1 CNE14 = details: Table 7; CNE14, clade B′, R5
# HIV-1 CNE46 = details: Table 7; CNE46, clade BC, R5
# HIV-1 CNE59 = details: Table 7; CNE59, clade AE, R5
# HIV-1 CH114 = details: Table 7; CH114, clade BC, R5
# HIV-1 CNE17 = details: Table 7; CNE17, clade C, R5
# HIV-1 CNE23 = details: Table 7; CNE23, clade BC, R5
# HIV-1 CNE107 = details: Table 7; CNE107, clade AE, X4
# HIV-1 CNE6 = details: Table 7; CNE6, clade B′, R5
# HIV-1 CNE5 = details: Table 7; CNE5, clade AE, R5
# HIV-1 CNE9 = details: Table 7; CNE9, clade B′, R5
# HIV-1 AE03 = details: Table 7; AE03, clade AE, R5
# HIV-1 CNE53 = details: Table 7; CNE53, clade BC, R5
# HIV-1 CNE30 = details: Table 7; CNE30, clade BC, R5
# HIV-1 CH91 = details: Table 7; CH91, clade BC, R5
# HIV-1 YN192.31 = details: Table 7; YN192.31, clade AE, R5
# HIV-1 CNE49 = details: Table 7; CNE49, clade BC, R5
# HIV-1 CNE11 = details: Table 7; CNE11, clade B′, R5
# HIV-1 CNE15 = details: Table 7; CNE15, clade BC, R5
# HIV-1 CNE3 = details: Table 7; CNE3, clade AE, R5
# HIV-1 CNE7 = details: Table 7; CNE7, clade BC, R5
# HIV-1 CNE1 = details: Table 7; CNE1, clade B′, X4
# HIV-1 CH64 = details: Table 7; CH64, clade BC, R5
# HIV-1 CNE57 = details: Table 7; CNE57, clade B′, X4
# HIV-1 GX2010.36 = details: Table 7; GX2010.36, clade AE, R5
# HIV-1 CNE40 = details: Table 7; CNE40, clade BC, R5
# HIV-1 CH117 = details: Table 7; CH117, clade BC, R5
# HIV-1 CNE47 = details: Table 7; CNE47, clade BC, R5
# HIV-1 CNE16 = details: Table 7; CNE16, clade BC, R5
# HIV-1 CNE66 = details: Table 7; CNE66, clade C, R5
# HIV-1 CH70 = details: Table 7; CH70, clade BC, R5
# HIV-1 CNE58 = details: Table 7; CNE58, clade C, R5
# HIV-1 CNE20 = details: Table 7; CNE20, clade BC, R5
substance,measurement,setting,value
4Dm2m: bispecific multivalent fusion protein of mD1.22 and m36.4; two SEQ ID NO: 20 and two SEQ ID NO: 21 chains,IC50,HIV-1 CNE65,0.28 nM
same,IC90,HIV-1 CNE65,3.3 nM
same,IC90,HIV-1 CNE14,2.4 nM
same,IC50,HIV-1 CNE46,0.27 nM
same,IC90,HIV-1 CNE46,9.4 nM
same,IC90,HIV-1 CNE59,2.7 nM
same,IC50,HIV-1 CH114,0.11 nM
same,IC90,HIV-1 CH114,4 nM
same,IC50,HIV-1 CNE17,0.11 nM
same,IC90,HIV-1 CNE17,2.4 nM
same,IC50,HIV-1 CNE23,0.49 nM
same,IC90,HIV-1 CNE23,4.9 nM
same,IC50,HIV-1 CNE107,0.52 nM
same,IC50,HIV-1 CNE6,0.33 nM
same,IC90,HIV-1 CNE6,2.3 nM
same,IC50,HIV-1 CNE5,0.67 nM
same,IC90,HIV-1 CNE5,8.7 nM
same,IC50,HIV-1 CNE9,0.22 nM
same,IC50,HIV-1 AE03,0.67 nM
same,IC50,HIV-1 CNE53,0.24 nM
same,IC90,HIV-1 CNE53,5.5 nM
same,IC50,HIV-1 CNE30,0.07 nM
same,IC90,HIV-1 CNE30,0.44 nM
same,IC50,HIV-1 CH91,0.39 nM
same,IC90,HIV-1 CH91,10 nM
same,IC50,HIV-1 YN192.31,0.89 nM
same,IC50,HIV-1 CNE49,0.05 nM
same,IC90,HIV-1 CNE49,0.56 nM
same,IC50,HIV-1 CNE11,0.33 nM
same,IC90,HIV-1 CNE11,2.6 nM
same,IC50,HIV-1 CNE15,0.29 nM
same,IC90,HIV-1 CNE15,2.6 nM
same,IC50,HIV-1 CNE3,0.39 nM
same,IC90,HIV-1 CNE3,2.8 nM
same,IC50,HIV-1 CNE7,0.18 nM
same,IC90,HIV-1 CNE7,1.8 nM
same,IC50,HIV-1 CNE1,0.11 nM
same,IC90,HIV-1 CNE1,0.61 nM
same,IC90,HIV-1 CH64,1.6 nM
same,IC90,HIV-1 CNE57,19 nM
same,IC50,HIV-1 GX2010.36,0.11 nM
same,IC50,HIV-1 CNE40,0.01 nM
same,IC90,HIV-1 CNE40,0.11 nM
same,IC50,HIV-1 CH117,0.33 nM
same,IC50,HIV-1 CNE47,0.11 nM
same,IC90,HIV-1 CNE47,2.8 nM
same,IC50,HIV-1 CNE16,0.08 nM
same,IC90,HIV-1 CNE16,1.2 nM
same,IC90,HIV-1 CNE66,7.7 nM
same,IC50,HIV-1 CH70,0.11 nM
same,IC90,HIV-1 CH70,1.2 nM
same,IC90,HIV-1 CNE58,> 28 nM
same,IC50,HIV-1 CNE20,0.05 nM
same,IC90,HIV-1 CNE20,5.3 nM
enfuvirtide,IC50,HIV-1 CNE65,5.9 nM
same,IC90,HIV-1 CNE65,78 nM
same,IC50,HIV-1 CNE14,9.7 nM
same,IC90,HIV-1 CNE14,305 nM
same,IC50,HIV-1 CNE46,26 nM
same,IC90,HIV-1 CNE46,743 nM
same,IC50,HIV-1 CNE59,1.4 nM
same,IC90,HIV-1 CNE59,17 nM
same,IC50,HIV-1 CH114,102 nM
same,IC90,HIV-1 CH114,> 750 nM
same,IC50,HIV-1 CNE17,42 nM
same,IC90,HIV-1 CNE17,676 nM
same,IC50,HIV-1 CNE23,15 nM
same,IC90,HIV-1 CNE23,228 nM
same,IC50,HIV-1 CNE107,3.8 nM
same,IC90,HIV-1 CNE107,45 nM
same,IC50,HIV-1 CNE6,1.4 nM
same,IC90,HIV-1 CNE6,15 nM
same,IC50,HIV-1 CNE5,2.1 nM
same,IC90,HIV-1 CNE5,19 nM
same,IC50,HIV-1 CNE9,1.7 nM
same,IC90,HIV-1 CNE9,14 nM
same,IC50,HIV-1 AE03,304 nM
same,IC90,HIV-1 AE03,510 nM
same,IC50,HIV-1 CNE53,51 nM
same,IC90,HIV-1 CNE53,721 nM
same,IC50,HIV-1 CNE30,26 nM
same,IC90,HIV-1 CNE30,285 nM
same,IC50,HIV-1 CH91,8.6 nM
same,IC90,HIV-1 CH91,310 nM
same,IC50,HIV-1 YN192.31,42 nM
same,IC90,HIV-1 YN192.31,336 nM
same,IC50,HIV-1 CNE49,9.1 nM
same,IC90,HIV-1 CNE49,236 nM
same,IC50,HIV-1 CNE11,3.5 nM
same,IC90,HIV-1 CNE11,36 nM
same,IC50,HIV-1 CNE15,14 nM
same,IC90,HIV-1 CNE15,157 nM
same,IC50,HIV-1 CNE3,5.6 nM
same,IC90,HIV-1 CNE3,38 nM
same,IC50,HIV-1 CNE7,4.3 nM
same,IC90,HIV-1 CNE7,58 nM
same,IC50,HIV-1 CNE1,1.6 nM
same,IC90,HIV-1 CNE1,17 nM
same,IC50,HIV-1 CH64,3.1 nM
same,IC90,HIV-1 CH64,25 nM
same,IC50,HIV-1 CNE57,2.5 nM
same,IC90,HIV-1 CNE57,24 nM
same,IC50,HIV-1 GX2010.36,255 nM
same,IC90,HIV-1 GX2010.36,> 750 nM
same,IC50,HIV-1 CNE40,4.9 nM
same,IC90,HIV-1 CNE40,108 nM
same,IC50,HIV-1 CH117,2.3 nM
same,IC90,HIV-1 CH117,34 nM
same,IC50,HIV-1 CNE47,4.9 nM
same,IC90,HIV-1 CNE47,42 nM
same,IC50,HIV-1 CNE16,14 nM
same,IC90,HIV-1 CNE16,169 nM
same,IC50,HIV-1 CNE66,129 nM
same,IC90,HIV-1 CNE66,729 nM
same,IC50,HIV-1 CH70,65 nM
same,IC90,HIV-1 CH70,> 750 nM
same,IC50,HIV-1 CNE58,54 nM
same,IC90,HIV-1 CNE58,745 nM
same,IC50,HIV-1 CNE20,5.5 nM
same,IC90,HIV-1 CNE20,41 nM
